According to BigSolDB 2.1:

N[C@@H](Cc1c[nH]c2ccccc12)C(=O)O
solubility (mole fraction)
Settings	in acetone	in acetonitrile	in ethanol	in ethyl acetate	in isopropanol	in methanol	in n-butanol	in water
278.15 K	0.0001	1e-05	0.00012	4e-05	0.00011	0.00062	0.0001	0.00098
283.15 K	0.00011	2e-05	0.00013	5e-05	0.00012	0.00066	0.00011	0.00105
288.15 K	0.00013	2e-05	0.00014	7e-05	0.00014	0.00072	0.00012	0.00113
293.15 K	0.00015	3e-05	0.00017	9e-05	0.00015	0.0008	0.00014	0.00124
298.15 K	0.00018	4e-05	0.0002	0.00011	0.00018	0.0009	0.00017	0.00137
303.15 K	0.00022	5e-05	0.00024	0.00014	0.00021	0.00102	0.0002	0.00154
308.15 K	0.00026	7e-05	0.00028	0.00018	0.00024	0.00115	0.00024	0.00174
313.15 K	0.00031	8e-05	0.00033	0.00023	0.00028	0.00131	0.00028	0.00199
318.15 K	0.00037	0.0001	0.00038	0.00028	0.00033	0.00149	0.00034	0.00229
323.15 K	0.00045	0.00012	0.00044	0.00034	0.00037	0.00166	0.0004	0.00261
328.15 K	0.00056	0.00014	0.0005	0.00041	0.00043	0.00189	0.00049	0.00294
333.15 K	0.00069	0.00017	0.00058	0.0005	0.0005	0.00217	0.00059	0.00328
